Experimental data from patent US7122547B1, “Anthranilic acid amides and the use thereof as medicaments” (Schering AG, priority 1998, dated 2006).
pIC50: −log10 of the molar value.

Columns and labels:
VEGFR I (FLT) = VEGFR I (FLT) (Homo sapiens, UniProt P17948); assay: Inhibition of FLT-1 kinase activity (33P-ATP, poly-(Glu4Tyr) phosphocellulose filter assay); format: biochemical; details: 10 minutes at room temperature, KH = keine Hemmung = No inhibition
Description: (§1) • Stock solutions • Stock solution A: 3 mmol of ATP in water, pH 7.0 (−70° C.) • Stock solution B: g-0.33P-ATP 1 mCi/100 μl • Stock solution C: poly-(Glu4Tyr) 10 mg/ml in water Solution for Dilutions • Substrate solvent: 10 mmol of DTT, 10 mmol of manganese chloride, 100 mmol of magnesium chloride • Enzyme solution: 120 mmol of tris/HCl, pH 7.5, 10 μm of sodium vanadium oxide Sample Application 1
(§2) Inhibition of the KDR- and FLT-1 kinase activity in the presence of the compounds according to the invention
(§3) It is thoroughly mixed and incubated for 10 minutes at room temperature. Then, 10 μl of stop solution (250 mmol of EDTA, pH 7.0) is added, mixed, and 10 μl of the solution is transferred to a P 81 phosphocellulose filter. Then, it is washed several times in 0.01 M phosphoric acid. The filter paper is dried, coated with Meltilex and measured in a microbeta counter.

VEGFR II (KDR) = VEGFR II (KDR) (Homo sapiens, UniProt P35968); assay: Inhibition of KDR kinase activity (33P-ATP, poly-(Glu4Tyr) phosphocellulose filter assay); format: biochemical; details: 10 minutes at room temperature, KH = keine Hemmung = No inhibition
Description: as §1, §2, §3

VEGFR I (FLT), sequence (P17948 27-1338, species assumed): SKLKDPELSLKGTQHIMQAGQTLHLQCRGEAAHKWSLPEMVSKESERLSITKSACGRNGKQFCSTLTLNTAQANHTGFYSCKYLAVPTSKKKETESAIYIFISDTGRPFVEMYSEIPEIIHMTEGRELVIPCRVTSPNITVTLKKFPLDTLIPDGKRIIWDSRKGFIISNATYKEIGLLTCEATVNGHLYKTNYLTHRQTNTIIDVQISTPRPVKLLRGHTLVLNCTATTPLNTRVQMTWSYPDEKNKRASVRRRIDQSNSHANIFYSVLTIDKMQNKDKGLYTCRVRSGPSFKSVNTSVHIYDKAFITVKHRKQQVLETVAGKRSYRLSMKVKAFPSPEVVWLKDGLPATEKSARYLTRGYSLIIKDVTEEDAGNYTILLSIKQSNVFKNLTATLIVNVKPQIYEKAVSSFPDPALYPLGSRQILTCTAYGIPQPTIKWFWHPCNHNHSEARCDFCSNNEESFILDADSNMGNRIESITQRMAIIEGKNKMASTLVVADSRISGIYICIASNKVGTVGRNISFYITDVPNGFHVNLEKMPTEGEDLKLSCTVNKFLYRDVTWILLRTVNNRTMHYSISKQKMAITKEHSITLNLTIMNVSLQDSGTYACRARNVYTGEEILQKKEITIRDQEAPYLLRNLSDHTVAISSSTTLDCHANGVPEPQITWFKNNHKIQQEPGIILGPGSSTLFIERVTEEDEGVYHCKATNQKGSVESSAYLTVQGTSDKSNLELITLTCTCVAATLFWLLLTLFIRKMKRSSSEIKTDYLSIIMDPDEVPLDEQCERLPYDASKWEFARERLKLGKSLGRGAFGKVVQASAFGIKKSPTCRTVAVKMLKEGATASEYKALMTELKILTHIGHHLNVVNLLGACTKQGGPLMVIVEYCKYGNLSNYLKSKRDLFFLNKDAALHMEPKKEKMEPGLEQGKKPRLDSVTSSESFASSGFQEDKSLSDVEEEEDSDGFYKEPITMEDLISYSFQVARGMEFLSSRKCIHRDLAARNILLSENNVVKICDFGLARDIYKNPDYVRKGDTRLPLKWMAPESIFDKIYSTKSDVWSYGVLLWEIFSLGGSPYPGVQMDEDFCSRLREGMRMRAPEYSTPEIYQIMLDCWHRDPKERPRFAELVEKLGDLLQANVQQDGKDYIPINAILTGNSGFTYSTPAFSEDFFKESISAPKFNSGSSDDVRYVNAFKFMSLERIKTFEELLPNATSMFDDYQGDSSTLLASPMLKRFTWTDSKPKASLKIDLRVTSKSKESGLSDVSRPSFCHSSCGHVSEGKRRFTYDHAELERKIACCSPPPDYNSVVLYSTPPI
VEGFR II (KDR), sequence (P35968 20-1356, species assumed): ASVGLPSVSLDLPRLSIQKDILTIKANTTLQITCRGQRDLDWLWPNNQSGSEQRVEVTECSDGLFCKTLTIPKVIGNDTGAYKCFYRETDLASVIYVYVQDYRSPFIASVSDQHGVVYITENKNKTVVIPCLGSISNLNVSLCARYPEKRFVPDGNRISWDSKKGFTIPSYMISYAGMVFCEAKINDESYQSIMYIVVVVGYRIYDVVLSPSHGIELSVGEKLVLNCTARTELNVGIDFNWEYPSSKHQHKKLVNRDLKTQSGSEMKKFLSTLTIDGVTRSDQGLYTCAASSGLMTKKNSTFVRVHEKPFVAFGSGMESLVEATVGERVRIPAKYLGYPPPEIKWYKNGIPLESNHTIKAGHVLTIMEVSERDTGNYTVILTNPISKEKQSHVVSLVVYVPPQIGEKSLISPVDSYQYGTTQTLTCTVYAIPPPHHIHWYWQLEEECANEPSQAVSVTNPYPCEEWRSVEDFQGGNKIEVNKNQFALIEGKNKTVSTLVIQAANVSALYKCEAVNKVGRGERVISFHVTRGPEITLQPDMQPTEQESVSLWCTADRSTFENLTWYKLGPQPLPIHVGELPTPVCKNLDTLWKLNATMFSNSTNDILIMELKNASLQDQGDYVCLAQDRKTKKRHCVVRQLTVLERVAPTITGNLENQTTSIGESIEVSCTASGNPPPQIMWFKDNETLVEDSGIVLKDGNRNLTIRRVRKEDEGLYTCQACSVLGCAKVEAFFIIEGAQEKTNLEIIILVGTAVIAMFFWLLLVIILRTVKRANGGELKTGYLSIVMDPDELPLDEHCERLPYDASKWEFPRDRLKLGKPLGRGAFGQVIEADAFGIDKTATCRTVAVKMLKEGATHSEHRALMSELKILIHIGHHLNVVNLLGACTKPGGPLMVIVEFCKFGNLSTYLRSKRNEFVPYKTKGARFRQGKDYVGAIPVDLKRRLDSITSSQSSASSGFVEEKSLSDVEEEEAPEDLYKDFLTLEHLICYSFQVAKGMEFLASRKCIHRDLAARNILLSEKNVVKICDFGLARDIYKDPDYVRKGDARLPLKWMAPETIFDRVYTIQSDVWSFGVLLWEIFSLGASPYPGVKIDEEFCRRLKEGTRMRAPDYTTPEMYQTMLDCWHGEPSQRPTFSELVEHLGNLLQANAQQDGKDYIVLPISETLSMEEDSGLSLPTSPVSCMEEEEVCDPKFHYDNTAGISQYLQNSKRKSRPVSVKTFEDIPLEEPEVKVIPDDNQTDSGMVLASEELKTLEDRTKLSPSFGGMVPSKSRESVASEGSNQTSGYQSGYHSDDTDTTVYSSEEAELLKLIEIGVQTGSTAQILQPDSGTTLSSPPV

| SMILES | pIC50 (VEGFR I (FLT)) | pIC50 (VEGFR II (KDR)) |
| --- | --- | --- |
| O=C(NCCCc1ccccc1)c1ccccc1NCc1ccncc1 [Example 2.0, N-(3-phenylprop-1-yl)-N2-(4-pyridylmethyl)-anthranilic acid amide] | 7.30 | 7.30 |
| O=C(NCc1ccc(Cl)cc1)c1ccccc1NCc1ccncc1 [Example 2.1] | 8.00 | 6.52 |
| O=C(NC1Cc2ccccc2C1)c1ccccc1NCc1ccncc1 [Example 2.2] | 7.00 | 6.30 |
| O=C(NCCc1ccc(Cl)cc1)c1ccccc1NCc1ccncc1 [Example 2.3] | 7.70 | 7.70 |
| O=C(NNc1ccc(Cl)cc1)c1ccccc1NCc1ccncc1 [Example 2.4] | 7.70 | 7.00 |
| CN(NC(=O)c1ccccc1NCc1ccncc1)c1ccccc1 [Example 2.5] | 6.00 |  |
| O=C(NCc1cccs1)c1ccccc1NCc1ccncc1 [Example 2.6] | 6.70 | 5.70 |
| O=C(NCCc1c[nH]c2cc(F)ccc12)c1ccccc1NCc1ccncc1 [Example 2.8] | 6.30 | 7.00 |
| COc1cc2c(cc1OC)CC(NC(=O)c1ccccc1NCc1ccncc1)CC2 (stereo not drawn) [Example 2.9] | 5.30 |  |
| O=C(NCc1ccncc1)c1ccccc1NCc1ccncc1 [Example 2.10] | 5.52 |  |
| O=C(NCc1cccc2ccccc12)c1ccccc1NCc1ccncc1 [Example 2.11] | 7.70 | 6.70 |
| CC(NC(=O)c1ccccc1NCc1ccncc1)c1cccc2ccccc12 (stereo not drawn) [Example 2.12] | 6.15 | 5.52 |
| O=C(NC1CCCc2ccccc21)c1ccccc1NCc1ccncc1 (stereo not drawn) [Example 2.13] | 6.15 | 5.52 |
| O=C(NCCCc1ccc(Cl)cc1)c1ccccc1NCc1ccncc1 [Example 2.14] | 6.30 | 6.52 |
| CC(NC(=O)c1ccccc1NCc1ccncc1)c1ccc(Cl)cc1 (stereo not drawn) [Example 2.15] | 6.00 |  |
| CC(CNC(=O)c1ccccc1NCc1ccncc1)c1ccc(Cl)cc1 (stereo not drawn) [Example 2.16] | 7.00 | 6.70 |
| CC(Cc1ccc(Cl)cc1)NC(=O)c1ccccc1NCc1ccncc1 (stereo not drawn) [Example 2.17] | 6.40 | 6.30 |
| CC(CNC(=O)c1ccccc1NCc1ccncc1)c1ccccc1 (stereo not drawn) [Example 2.18] | 6.52 | 6.30 |
| CC(C)(NC(=O)c1ccccc1NCc1ccncc1)c1ccccc1 [Example 2.19] | < 5.00 | < 5.00 |
| O=C(NC1CCc2cc(Cl)ccc21)c1ccccc1NCc1ccncc1 (stereo not drawn) [Example 2.20] | 5.40 |  |
| COc1ccc(CCNC(=O)c2ccccc2NCc2ccncc2)cc1OC [Example 2.21] | 5.70 | 6.52 |

| SMILES | pIC50 (VEGFR I (FLT)) | pIC50 (VEGFR II (KDR)) |
| --- | --- | --- |
| O=C(Nc1ccc2nsnc2c1)c1ccccc1NCc1ccncc1 [Example 2.23] | 7.70 | 6.17 |
| O=C(N[C@@H]1CCCc2ccccc21)c1ccccc1NCc1ccncc1 [Example 2.24] | 6.30 | < 6.00 |
| O=C(Nc1cccc2ncccc12)c1ccccc1NCc1ccncc1 [Example 2.26] | 6.70 | 6.70 |
| O=C(Nc1nccc2ccccc12)c1ccccc1NCc1ccncc1 [Example 2.31] | 7.00 | 6.57 |
| O=C(Nc1ncc(Cl)cn1)c1ccccc1NCc1ccncc1 [Example 2.32] | 7.70 | 7.70 |
| O=C(Nc1cc2ccccc2c(Nc2cc3ccccc3c(Br)n2)n1)c1ccccc1NCc1ccncc1 [Example 2.33] | 6.00 | 5.70 |
| O=C(Nc1cccc2cccnc12)c1ccccc1NCc1ccncc1 [Example 2.34] | 5.70 | 7.00 |
| COc1ccc(CCNC(=O)c2ccccc2NCc2ccncc2)cc1 [Example 2.35] | 7.01 | 7.70 |
| O=C(Nc1ccccn1)c1ccccc1NCc1ccncc1 [Example 2.37] | 6.70 |  |
| O=C(NCc1cccnc1)c1ccccc1NCc1ccncc1 [Example 2.38] | 5.15 | 6.70 |
| O=C(Nc1ccc(Cl)cn1)c1ccccc1NCc1ccncc1 [Example 2.39] | 7.30 | 7.52 |
| O=C(Nc1cccnc1)c1ccccc1NCc1ccncc1 [Example 2.40] | 6.30 |  |
| O=C(Nc1nnc(C(F)(F)F)s1)c1ccccc1NCc1ccncc1 [Example 2.41] | 6.00 | 6.52 |
| O=C(NCc1ccc(C(F)(F)F)cc1)c1ccccc1NCc1ccncc1 [Example 2.42] | 6.30 | 7.00 |
| O=C(Nc1cc(-c2ccccc2)[nH]n1)c1ccccc1NCc1ccncc1 [Example 2.43] | 7.70 | 7.30 |
| O=C(NC1CCC(c2ccccc2)CC1)c1ccccc1NCc1ccncc1 (stereo not drawn) [Example 2.44] | 6.52 | 6.70 |
| O=C(N[C@H]1CCCc2ccccc21)c1ccccc1NCc1ccncc1 [Example 2.45] | 7.00 |  |
| O=C(NCc1nccc2ccccc12)c1ccccc1NCc1ccncc1 [Example 2.47] | 7.70 |  |
| O=C(NCc1ccc2ccccc2n1)c1ccccc1NCc1ccncc1 [Example 2.48] | 7.00 | 6.30 |
| O=C(Nc1ccc2c(c1)NCCC2)c1ccccc1NCc1ccncc1 [Example 2.49] | 7.10 | 7.30 |
| O=C(Nc1ccc2ncccc2c1)c1ccccc1NCc1ccncc1 [Example 2.52] | 7.30 |  |

| SMILES | pIC50 (VEGFR I (FLT)) | pIC50 (VEGFR II (KDR)) |
| --- | --- | --- |
| O=C(Nc1ccc2ccccc2n1)c1ccccc1NCc1ccncc1 [Example 2.53] | 7.70 | 7.70 |
| O=C(Nc1cc2ccccc2cn1)c1ccccc1NCc1ccncc1 [Example 2.54] | 7.70 | 8.30 |
| O=C(Nc1cccc2cnccc12)c1ccccc1NCc1ccncc1 [Example 2.55] | 6.52 | 6.70 |
| O=C(Nc1ccc2[nH]ccc2c1)c1ccccc1NCc1ccncc1 [Example 2.56] | 7.40 | 7.70 |
| O=C(Nc1cc2ccccc2cn1)c1cc(F)ccc1NCc1ccncc1 [Example 2.63] |  | 9.52 |
| COc1ccc(CNc2ccccc2C(=O)NCc2ccc(Cl)cc2)cc1 [Example 3.0, N-(4-chlorobenzyl)-N-2-(4-methoxybenzyl)anthranilamide] |  | 5.52 |
| O=C(NCCc1ccc(Cl)cc1)c1ccccc1NCc1ccc(O)cc1 [Example 4.0, N-[2-(4-chlorophenyl)ethyl]-N-2-(4-hydroxybenzyl)anthranilamide] | 6.30 | 6.70 |
| O=C(Nc1ccc2[nH]ncc2c1)c1ccccc1NCc1ccncc1 [Example 8.0, N-(indazol-5-yl) N2-(4-pyridylmethyl)-anthranilic acid amide] | 7.40 | 7.40 |
| O=C(Nc1nc2ccccc2[nH]1)c1ccccc1NCc1ccncc1 [Example 8.2] | 6.70 | 6.70 |
| O=C(Nc1ccc2ncsc2c1)c1ccccc1NCc1ccncc1 [Example 8.8] | 7.30 | 7.70 |
| O=C(Nc1nc2ccc(OC(F)(F)F)cc2s1)c1ccccc1NCc1ccncc1 [Example 8.9] | 6.30 | 6.30 |
| O=C(Nc1ccc2cn[nH]c2c1)c1ccccc1NCc1ccncc1 [Example 8.10] | 7.70 | 7.70 |
| O=C(Nc1ccncc1)c1ccccc1NCc1ccncc1 [Example 8.11] | 6.70 |  |
| Cn1c(NC(=O)c2ccccc2NCc2ccncc2)nc2ccccc21 [Example 8.12] | 6.70 | 7.00 |
| O=C(Nc1nc2ccc(Cl)cc2s1)c1ccccc1NCc1ccncc1 [Example 8.13] | 6.30 | 6.30 |
| O=C(Nc1ccc2nc[nH]c2c1)c1ccccc1NCc1ccncc1 [Example 8.14] | 6.30 | 6.70 |
| O=C(Nc1ccc2[nH]nnc2c1)c1ccccc1NCc1ccncc1 [Example 8.15] | 6.70 | 6.70 |
| O=C(Nc1nc2ccc(F)cc2s1)c1ccccc1NCc1ccncc1 [Example 8.16] | 6.70 | 6.52 |
| O=C(Nc1nc2c(Cl)cccc2s1)c1ccccc1NCc1ccncc1 [Example 8.17] |  | 7.30 |
